Literature values in US20090214599A1, “PROTON PUMP INHIBITOR FORMULATIONS, AND METHODS OF PREPARING AND USING SUCH FORMULATIONS” (AGI THERAPEUTICS PLC, priority 2008, published 2009).

Tests used:
[1] = healthy subjects
[2] = pH <4

- total body clearance [1]: 500 to 600 mL/min
- Protein binding: approximately 95%
- half-life of degradation in acid conditions [2]: ~10 min
Structure (SMILES): COc1ccc2[nH]c([S+]([O-])Cc3ncc(C)c(OC)c3C)nc2c1 (stereo not drawn) [omeprazole]
